The record followed here is patent US11147746B2, “Hydrophobic dental surfaces” (priority 2016, dated 2021).

No end group written: not given here.

The nature of series [1]: Saliva (enzyme) challenge of coated dentin, then WCA and acidic dye penetration. Details: species or system bovine. The settings on record: saliva at 37° C. for three consecutive days. The procedure: Peptide-coated dentin samples were challenged with saliva, which includes enzymes. Bovine dentin slabs, prepared as discussed above with reference to EXAMPLE 2, were incubated in freshly collected and filtered saliva (thus exposed to biodegrading enzymes) at 37° C. for three consecutive days. The WCA was subsequently measured, and the samples were further immersed in acidic blue dye for 4 h. GL13K-coated dentin retained its hydrophobic character after the challenge, with average WCA=105°. FIG. 7A is a photograph showing a transverse cross-section of a tooth slab including enamel and dentin and treated with a buffer solution, exposed to saliva for three days, and subjected to an acidic blue dye.

Series [2] can be described thus: Water contact angle (sessile drop) on peptide-coated dentin. It counts as physicochemical. The text has this: The water contact angle (WCA) may be measured using the sessile drop method with deionized water as probe liquid. The sessile drop is the most common method for optical measurement of the contact angle using drop shape analysis. Measurement of the contact angle of a sessile drop that lies on the surface of a solid may be made with a contact angle goniometer, which allows measuring the contact angle visually by capturing the profile of a pure liquid on a solid substrate. The angle formed between the liquid-solid interface and the liquid-vapor interface is determined to be the water contact angle. A droplet is deposited by a syringe which is positioned above the sample surface, and a high-resolution camera may be used to capture the image from the profile or side view. The image may be analyzed using image analysis software. The measurement may be referred to as a static contact angle measurement. The change in WCA, or ΔWCA, is the difference between the average water contact angles after predetermined intervals of time, for example, 1 s and 21 s of drop contact with the tested surface, or the difference between the initial and the final water contact angles.
Water contact angles described according to the disclosure are with reference to the sessile drop technique, using a drop volume or 2-5 μL, for example, 3 μL. Similar or different values of WCA and ΔWCA for the same tested surfaces may be obtained using other methods to determine wettability of surfaces, such as the Wilhelmy method, or when using different drop volumes. In some examples, one or more of these or other techniques may be used to determine the WCA or ΔWCA.
The wettability of coated etched dentin with these peptides was evaluated in different conditions, for example, single or double GL13K coatings, rinsing with water or alcohol after coating, after deproteinization, with blow drying, alcohol drying, combinations of the two, or progressive alcohol drying after dentin etching, and using the same buffer solutions with or without peptides. Dynamic water contact angles (WCA) of water drops placed on the treated dentin surfaces were measured.
A drop of 3 μL of deionized water was dispensed using a contact angle meter (DCM-E1, Kyowa, Japan) on top of the dentin surfaces with and without treatments. Images of the drop were automatically taken with the camera of the contact angle meter every second for 21 s; i.e., until the shape of the drop on the surface was stable for all surfaces analyzed. The shape of the profile of the drop on the surface was then automatically identified by the equipment's software (Famas, Kyowa, Japan) and the contact angle between the liquid-solid interface and the liquid-vapor interface was determined. The reported WCA are average values at the end of the test; i.e., after 21 s the drop was in contact with the tested surface for at least 3 different drops in three different surfaces for each dentin treatment. ΔWCA is the difference between the average water contact angles after 1 s and 21 s of drop contact with the tested surface; i.e., the difference between the initial and the final water contact angles.
A de-proteinization step was used to remove demineralized/exposed collagen. […] A super-hydrophobic GL13K-coated dentin surface with water contact angles up to 100 was produced.

Setting [3] is: dentin prepared with the deproteinized method, then coated (samples S12, S14, S16).
Setting [4] is: progressive dehydration protocol (increasing ethanol concentrations).

As to GKIIKLKASLKLL [GL13K], the “average WCA after saliva challenge” value in series [1] is listed as 105 °. For the same sequence, the WCA came to 85 ° in series [2] (setting [3]); 120 ° in series [2] (setting [4]); 55 ° in series [2] (single coating on etched dentin, alcohol rinse and blow drying); 70 ° in series [2] (single coating on etched dentin, water rinse and blow drying); 100 ° in series [2] (two coating treatments, rinsing with alcohol). In addition, in series [2] (etching, wet de-proteinization with 5% NaOCl, coating without alcohol dehydration (Example 8)), the water contact angles entry was “up to 100”. Besides, in series [2] (setting [4]), the ΔWCA came out at 4 °. Further, the “variation of water contact angle over time” value in series [2] (with respect to the etched dentin) is on record as “significantly reduced”.

For the sequence VRLIVAVRIWRR [Sample 1018], the WCA in series [2] (setting [3]) is 84 °.
